The results in this text go back to patent publication US6426329B1, “Immunosuppressant activity of insulin-like growth factor I (IGF-I)” (Fujisawa Pharmaceutical Co., Ltd., priority 1997, dated 2002).

The subject of one assay is IGF-I. The assay can be described thus: IGF-I producing action of FK506 (liver and blood IGF-I by rat IGF-I RIA kit after 7 days oral dosing). The note with it: male SD rats; for increase of blood concentration of IGF-I / increase of concentration of IGF-I in the liver: 0.5 hour after final dose. Format: in vivo. The protocol: Male SD rats aged 6 weeks were orally dosed with FK506 once daily for 7 consecutive days, and at 0.5 hour following the final dose, the liver and blood were isolated. The blood IGF-I concentration was measured by acid-ethanol extraction and subsequent assay with a rat IGF-I RIA kit (DSL). The hepatic IGF-I level was measured by acetic acid extraction and subsequent assay with the rat IGF-I RIA kit. Five rats per group were used.

For assay [1], the system named is Bile secretions. The assay can be described thus: Choleretic action of FK506 and synergistic action of IGF-I (bile secretion in bile duct-cannulated anesthetized rats). To be noted: for effect on choleresis (in words): summary of Table 2 data, IGF-I in combination with FK506. In kind it is in vivo, rat. Here is the method:
Using male SD rats (6 weeks old) under urethane anesthesia (1.2 g/5 ml/kg), a midline incision was made in the abdominal region. Ligation was performed at the lower part of the common bile duct and a polyethylene tube (PE10, Intramedics) was inserted from above and ligated in position. The bile was thus withdrawn extracorporeally and pooled. The rat was kept warm on a hot plate at 37° C. and the volume of the bile withdrawn-was measured at 30-min intervals. […] As to FK506, FK506 Inj. (1P mg/1 ml vial) was used. Rats in the control group received saline both intravenously and subcutaneously. The bile was collected up to 180min after medication. As the baseline secretions, the average of the values at 2 points of time immediately preceding drug administration was used.

The subject of assay [2] is Bile secretions. In words: Anticholeretic action of CsA and antagonizing action of IGF-I (bile secretion in bile duct-cannulated anesthetized rats). Format: in vivo, rat. Here is the method: Using male SD rats (7 weeks old) under urethane anesthesia (1.2 g/5 ml/kg), a midline incision was made in the abdominal region. Ligation was performed at the lower part of the common bile duct and a polyethylene tube (PE10, Intramedics) was inserted from above and ligated in position. The bile was thus withdrawn extracorporeally and pooled. The rat was kept warm on a hot plate at 37° C. and the volume of the bile withdrawn was measured at 30-min intervals. […] (250 mg/5 ml vial) was diluted with saline. Rats in the control group received saline both intravenously and subcutaneously. The bile was collected up to 180 min after drug administration. As the baseline secretions, the average of the values at 2 points of time immediately preceding drug administration was used.

[3] abbreviates: FK506 1 mg/kg orally once daily for 7 days.
Where [4] appears, read: FK506 10 mg/kg orally once daily for 7 days.
Where [5] appears, read: Before administration (baseline).
[6] abbreviates: Before administration (baseline), Mean ± S.E.

`C=CC[C@@H]1/C=C(\C)C[C@H](C)C[C@H](OC)[C@H]2O[C@@](O)(C(=O)C(=O)N3CCCC[C@H]3C(=O)O[C@H](/C(C)=C/[C@@H]3CC[C@@H](O)[C@H](OC)C3)[C@H](C)[C@@H](O)CC1=O)[C@H](C)C[C@@H]2OC` [FK506, 17-allyl-1,14-dihydroxy-12-[2-(4-hydroxy-3-methoxycyclohexyl)-1-methylvinyl]-23,25-dimethoxy-13,19,21,27-tetramethyl-11,28-dioxa-4-azatricyclo[22.3.1.0^4,9] octacos-18-ene-2,3,10,16-tetraone]: in the assay on IGF-I (setting [3]), the “increase of blood concentration of IGF-I” value turned out to be 14% and the “increase of concentration of IGF-I in the liver” value is recorded as 28%. For the same molecule, in the assay with IGF-I (setting [4]), the “increase of blood concentration of IGF-I” value stood at 11% and the “increase of concentration of IGF-I in the liver” value amounted to 26%. Moreover, in the assay with IGF-I (liver), the “IGF-I producing activity (in words)” value is “express IGF-I producing activity in the liver”. For the same molecule, the “effect on choleresis (in words)” value with Bile secretions [1] is “has a choleretic action”.

As to “IGF-I: insulin-like growth factor I (IGF-I), dissolved in saline, given subcutaneously”, the “Bile secretions, % of preadministration baseline” value (“Bile secretions, %” for short) in the assay with Bile secretions [2] (0˜30 min after administration, CsA 10 mg/kg i.v., IGF-I 10 mg/kg s.c.) is reported as “(109) %”; in the assay with Bile secretions [2] (30˜60 min after administration, CsA 10 mg/kg i.v., IGF-I 10 mg/kg s.c.) it was “(121) %”; in the assay with Bile secretions [2] (60˜90 min after administration, CsA 10 mg/kg i.v., IGF-I 10 mg/kg s.c.) it was “(124) %”; in the assay on Bile secretions [2] (90˜120 min after administration, CsA 10 mg/kg i.v., IGF-I 10 mg/kg s.c.), “(118) %”; with Bile secretions [2] (120˜150 min after administration, CsA 10 mg/kg i.v., IGF-I 10 mg/kg s.c.), “(121) %”; in the assay on Bile secretions [2] (150˜180 min after administration, CsA 10 mg/kg i.v., IGF-I 10 mg/kg s.c.) it was “(118) %”. Further, the “Bile secretions, %” value in the assay with Bile secretions [2] (setting [5]) is “(100) %”; in the assay with Bile secretions [1] (0˜30 min after administration, 10 mg/kg i.v. immunosuppressant, IGF-I 10 mg/kg s.c.) it was “(109) %”; in the assay on Bile secretions [1] (30˜60 min after administration, 10 mg/kg i.v. immunosuppressant, IGF-I 10 mg/kg s.c.), “(117) %”; in the assay on Bile secretions [1] (60˜90 min after administration, 10 mg/kg i.v. immunosuppressant, IGF-I 10 mg/kg s.c.), “(120) %”; in the assay on Bile secretions [1] (90˜120 min after administration, 10 mg/kg i.v. immunosuppressant, IGF-I 10 mg/kg s.c.), “(120) %”; in the assay on Bile secretions [1] (120˜150 min after administration, 10 mg/kg i.v. immunosuppressant, IGF-I 10 mg/kg s.c.), “(123) %”. Also, the “Bile secretions, %” value was “(114) %” in the assay with Bile secretions [1] (150˜180 min after administration, 10 mg/kg i.v. immunosuppressant, IGF-I 10 mg/kg s.c.) and “(100) %” in the assay with Bile secretions [1] (setting [5]). Moreover, the Bile secretions in the assay with Bile secretions [2] (setting [6]) was 0.33 ± 0.03 ml/30 min; with Bile secretions [1] (setting [6]) it was 0.35 ± 0.01 ml/30 min. Besides, the “effect on choleresis (in words)” value with Bile secretions [2] (summary of Table 1 data, IGF-I in combination with CsA) was “enhances choleresis”; in the assay on Bile secretions [1] it was “enhances choleresis”.
